According to article PMC10641817, “Ligand Sulfur Oxidation State Progressively Alters Galectin-3-Ligand Complex Conformations To Induce Affinity-Influencing Hydrogen Bonds” (Journal of Medicinal Chemistry, 2023):
Several values for one entry are separate records, joined by “and”; a condition that tells them apart may be missing. Equal entries are not always repeated. Each block holds one compound with its values, some of them ahead of it.

Key:
[1] = target: galectin-3 R144S (Homo sapiens, UniProt P17931, R144S); assay: competitive fluorescence polarization assay, galectin-3 R144S mutant; type: binding
Experimental: (§1) Fluorescence polarization experiments were carried out either with a POLARStar plate reader and FLUOstar Galaxy software or with a PheraStarFS plate reader and PHERAstar Mars version 2.10 R3 software (BMG, Offenburg, Germany). The dissociation constant (Kd) values were determined in PBS as described earlier.[13],[18] Compounds were dissolved in neat DMSO at 20 mM and diluted in PBS to 3–6 different concentrations to be tested in duplicate. Average Kd values and SEMs were calculated from 2 to 8 single-triple point measurements showing between 20 and 80% inhibition.

[2] = target: galectin-3 R144K (Homo sapiens, UniProt P17931, R144K); assay: competitive fluorescence polarization assay, galectin-3 R144K mutant; type: binding
Experimental: as §1

[3] = solubility in attempts at crystallographic structural analyses; type: physicochemical; conditions: for crystallography with galectin-3C
[4] = target: Galectin-3 Wild-Type (Homo sapiens, UniProt P17931); assay: competitive fluorescence polarization assay, galectin-3 wild-type; type: binding
Experimental: as §1, with “duplicate.” for “duplicate. Average Kd values and SEMs were calculated from 2 to 8 single-triple point measurements showing between 20 and 80% inhibition.”

[5] = target: T1, galectin-3C (the C-terminal domain of galectin-3) (Homo sapiens, UniProt P17931); assay: isothermal titration calorimetry (ITC) with galectin-3C; type: binding; conditions: 301 K
T1 construct: galectin-3C (the C-terminal domain of galectin-3)
Experimental: Stock solutions of the ligands were prepared in a buffer at 5 mM. The ligands were diluted with buffer to concentrations between 2 and 3 mM. […] All thermograms were integrated using NITPIC, the titration curves were fitted using SEDPHAT with error estimates using the automatic confidence interval search with projection method, and all figures were made in GUSSI.

Sequence of Galectin-3 Wild-Type (P17931 whole entry): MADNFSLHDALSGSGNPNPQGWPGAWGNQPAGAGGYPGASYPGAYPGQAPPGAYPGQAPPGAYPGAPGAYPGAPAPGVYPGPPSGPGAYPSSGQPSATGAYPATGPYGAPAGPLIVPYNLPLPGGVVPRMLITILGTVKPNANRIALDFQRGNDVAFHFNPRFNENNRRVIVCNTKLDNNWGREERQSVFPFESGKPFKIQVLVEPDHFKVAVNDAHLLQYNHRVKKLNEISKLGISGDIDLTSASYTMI
T1 sequence (P17931 118-248 limits assumed): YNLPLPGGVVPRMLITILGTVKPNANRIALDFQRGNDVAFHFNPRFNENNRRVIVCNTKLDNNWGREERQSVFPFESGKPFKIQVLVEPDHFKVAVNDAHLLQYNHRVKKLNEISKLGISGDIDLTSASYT
Sequence of galectin-3 R144K (P17931 whole entry R144K): as the sequence (P17931 whole entry) above, with R144K counted along it
Sequence of galectin-3 R144S (P17931 whole entry R144S): as the sequence (P17931 whole entry) above, with R144S counted along it

Kd [1]: 600 ± 80 µM
Kd [2]: 250 ± 6 µM
solubility [3]: insufficient solubility
Compound: Cc1ccc(S[C@@H]2O[C@H](CO)[C@H](O)[C@H](n3cc(S(=O)(=O)c4ccccc4)nn3)[C@H]2O)cc1 [4c, p-Methylphenyl 3-deoxy-3-[4-phenylsulfonyl-1H-1,2,3-triazole-1yl] 1-thio-β-D-galactopyranoside]

Kd ([4]; Table 1, galectin-3 wild-type, fluorescence polarization in PBS): > 600 µM
solubility [3]: insufficient solubility
Compound: Cc1ccc(S[C@@H]2O[C@H](CO)[C@H](O)[C@H](n3cc([S+]([O-])c4ccccc4)nn3)[C@H]2O)cc1 (stereo partly drawn) [4b, p-Methylphenyl 3-deoxy-3-[4-phenylsulfinyl-1H-1,2,3-triazole-1yl] 1-thio-β-D-galactopyranoside]
inhibition at the highest tested concentration ([4]; 2 mM, fluorescence polarization, galectin-3): b Weak inhibition at the highest tested concentration of 4b (2 mM) did not allow for accurate determination of the Kd value.

Kd [5]: 94.2 µM and 94 µM
Compound: [O-][S+](c1ccccc1)c1cn([C@H]2[C@@H](O)[C@@H](CO)O[C@@H](S[C@@H]3O[C@H](CO)[C@@H](O)[C@H](O)[C@H]3O)[C@@H]2O)nn1 (stereo partly drawn) [6b, 3′-Deoxy-3′-[4-phenylsulfinyl-1H-1,2,3-triazol-1-yl] -β-D-galactopyranosyl-1-thio-β-D-glucopyranoside]

solubility [3]: insufficient solubility
Compound: Cc1ccc(S[C@@H]2O[C@H](CO)[C@H](O)[C@H](n3cc(Sc4ccccc4)nn3)[C@H]2O)cc1 [4a, p-Methylphenyl 3-deoxy-3-[4-phenylsulfane-1H-1,2,3-triazol-1-yl] 1-thio-β-D-galactopyranoside]
